Source: the Kinase Knowledgebase extract (Sharma et al. 2016)

biological target: PIK3CD (Human) (UniProt O00329); experiment: Inhibition of PIK3CD Kinase Activity
Sequence (O00329 whole entry, looked up): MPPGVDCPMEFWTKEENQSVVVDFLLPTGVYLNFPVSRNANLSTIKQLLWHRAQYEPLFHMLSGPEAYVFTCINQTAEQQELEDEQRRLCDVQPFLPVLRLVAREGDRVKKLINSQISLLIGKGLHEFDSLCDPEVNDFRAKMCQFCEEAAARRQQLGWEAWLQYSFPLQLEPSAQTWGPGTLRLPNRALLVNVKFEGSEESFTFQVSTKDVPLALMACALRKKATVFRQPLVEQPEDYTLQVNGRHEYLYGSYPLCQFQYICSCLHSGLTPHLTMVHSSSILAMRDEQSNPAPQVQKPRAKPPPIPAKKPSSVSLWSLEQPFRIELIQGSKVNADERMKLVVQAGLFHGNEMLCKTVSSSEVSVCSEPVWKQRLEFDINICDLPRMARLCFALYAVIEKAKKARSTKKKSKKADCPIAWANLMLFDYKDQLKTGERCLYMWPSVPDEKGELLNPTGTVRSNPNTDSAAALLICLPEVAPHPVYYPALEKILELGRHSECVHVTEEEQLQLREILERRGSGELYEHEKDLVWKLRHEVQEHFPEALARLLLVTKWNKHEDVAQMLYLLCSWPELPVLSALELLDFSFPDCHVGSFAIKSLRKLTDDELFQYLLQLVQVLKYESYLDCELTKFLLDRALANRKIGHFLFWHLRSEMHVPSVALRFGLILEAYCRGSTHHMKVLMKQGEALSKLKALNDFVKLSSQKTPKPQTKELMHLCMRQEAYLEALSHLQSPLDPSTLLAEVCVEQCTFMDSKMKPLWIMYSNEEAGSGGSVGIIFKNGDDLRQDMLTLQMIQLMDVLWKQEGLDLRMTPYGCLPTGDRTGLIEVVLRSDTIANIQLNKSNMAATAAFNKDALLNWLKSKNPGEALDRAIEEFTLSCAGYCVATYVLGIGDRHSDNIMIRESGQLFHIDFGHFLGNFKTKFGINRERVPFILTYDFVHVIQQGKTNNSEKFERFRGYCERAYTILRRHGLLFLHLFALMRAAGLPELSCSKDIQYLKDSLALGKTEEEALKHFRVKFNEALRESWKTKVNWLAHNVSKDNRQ

IC50, < 500 nM:
CC(C)(C(N)=O)N1CCN(Cc2nc3c(N4CCOCC4)nc(-c4c(F)ccc5[nH]ccc45)nc3n2CCO)CC1
CCn1c(CN2CCC(n3cccn3)CC2)nc2c(N3CCOCC3)nc(-c3cccc4[nH]ccc34)nc21
CCn1c(CN2CCC(N3CC(F)(F)C3)CC2)nc2c(N3CCOCC3)nc(-c3c(F)ccc4[nH]ccc34)nc21
CCn1c(CN2CCC(N(C)S(C)(=O)=O)CC2)nc2c(N3CCOCC3)nc(-c3cccc4[nH]ccc34)nc21
CCn1c(CN2CCN(C3CCOCC3)CC2)nc2c(N3CCOCC3)nc(-c3c(F)ccc4[nH]ccc34)nc21
CCn1c(CN2CCOC(C)(C)C2)nc2c(N3CCOCC3)nc(-c3cccc4[nH]ccc34)nc21
CCn1c(CN2CC(N(C)C(C)(C)C(N)=O)C2)nc2c(N3CCOCC3)nc(-c3cccc4[nH]ccc34)nc21
CCn1c(CN2CC(NC(C)(C)C(N)=O)C2)nc2c(N3CCOCC3)nc(-c3c(F)ccc4[nH]ccc34)nc21
CCn1c(CN2CCC(C)(C(N)=O)CC2)nc2c(N3CCOCC3)nc(-c3c(F)ccc4[nH]ccc34)nc21
CCn1c(CN2CC3COCC(C2)N3)nc2c(N3CCOCC3)nc(-c3c(F)ccc4[nH]ccc34)nc21
CCn1c(CN2C[C@@H](C)N(CC(N)=O)[C@@H](C)C2)nc2c(N3CCOCC3)nc(-c3cccc4[nH]ccc34)nc21
Cn1c(CN2CCN(C(C)(C)C(N)=O)CC2)nc2c(N3CCOCC3)nc(-c3cccc4[nH]ccc34)nc21
CCn1c(CN2CCC(N3CCOC3=O)CC2)nc2c(N3CCOCC3)nc(-c3cccc4[nH]ccc34)nc21
CCn1c(CN2CCN(CC(N)=O)C(C)(C)C2)nc2c(N3CCOCC3)nc(-c3cccc4[nH]ccc34)nc21
CCn1c(CN2CC(N3CCOCC3)C2)nc2c(N3CCOCC3)nc(-c3cccc4[nH]ccc34)nc21
CCn1c(CN2CCN(C3CCS(=O)(=O)CC3)CC2)nc2c(N3CCOCC3)nc(-c3cccc4[nH]ccc34)nc21
CCn1c(CN2CCc3ccccc3C2)nc2c(N3CCOCC3)nc(-c3c(F)ccc4[nH]ccc34)nc21
CCn1c(CN2CCN(C(C)(C)C(N)=O)CC2)nc2c(N3CCOCC3)nc(-c3c(F)ccc4[nH]ccc34)nc21
CCn1c(CN2CCN(C3CCOCC3)CC2)nc2c(N3CCOCC3)nc(-c3cccc4[nH]ccc34)nc21
CN(C)C1CCN(Cc2nc3c(N4CCOCC4)nc(-c4c(F)ccc5[nH]ccc45)nc3[nH]2)CC1
CCn1c(CN2CCC3(CC2)CNC(=O)CO3)nc2c(N3CCOCC3)nc(-c3cccc4[nH]ccc34)nc21
CCn1c(CN2CCN(C(C)(C)C(N)=O)CC2)nc2c(N3CCOCC3)nc(-c3cccc4[nH]ccc34)nc21
CCn1c(CN2CC(NC(C)(C)C(N)=O)C2)nc2c(N3CCOCC3)nc(-c3cccc4[nH]ccc34)nc21
CCn1c(CN2CCC(N3CCCC3=O)CC2)nc2c(N3CCOCC3)nc(-c3c(F)ccc4[nH]ccc34)nc21
CCn1c(CN2CC(=O)NC(C)(C)C2)nc2c(N3CCOCC3)nc(-c3c(F)ccc4[nH]ccc34)nc21
CCn1c(CN2CCC(N3CCOCC3=O)CC2)nc2c(N3CCOCC3)nc(-c3cccc4[nH]ccc34)nc21
CCn1c(CN2CCC(N3CCOCC3)CC2)nc2c(N3CCOCC3)nc(-c3cccc4[nH]ccc34)nc21
CCn1c(CN2CC(=O)NC(C)(C)C2)nc2c(N3CCOCC3)nc(-c3cccc4[nH]ccc34)nc21
CCn1c(CN2CCC(N3CCC3)CC2)nc2c(N3CCOCC3)nc(-c3c(F)ccc4[nH]ccc34)nc21
CCn1c(CN2CCC(N3CCOCC3=O)CC2)nc2c(N3CCOCC3)nc(-c3c(F)ccc4[nH]ccc34)nc21
CCn1c(CN2CCOC(C)(C)C2)nc2c(N3CCOCC3)nc(-c3c(F)ccc4[nH]ccc34)nc21
CCn1c(CN2CCN(C(C)C)C(=O)C2)nc2c(N3CCOCC3)nc(-c3c(F)ccc4[nH]ccc34)nc21
CCn1c(CN2CCC(N(C)S(C)(=O)=O)CC2)nc2c(N3CCOCC3)nc(-c3c(F)ccc4[nH]ccc34)nc21
CCn1c(CN2CCN(CC(F)(F)F)CC2)nc2c(N3CCOCC3)nc(-c3cccc4[nH]ccc34)nc21
CCn1c(CN2CCN3CCOC[C@H]3C2)nc2c(N3CCOCC3)nc(-c3cccc4[nH]ccc34)nc21
CCn1c(CN2CCC(C(N)=O)(N3CCOCC3)CC2)nc2c(N3CCOCC3)nc(-c3cccc4[nH]ccc34)nc21
CCn1c(CN2CCN(C(C)C)C(=O)C2)nc2c(N3CCOCC3)nc(-c3cccc4[nH]ccc34)nc21
CCn1c(CN2CCC3(CCNC3=O)CC2)nc2c(N3CCOCC3)nc(-c3cccc4[nH]ccc34)nc21
CCn1c(CN2CC[C@H](NC(C)(C)C(N)=O)C2)nc2c(N3CCOCC3)nc(-c3c(F)ccc4[nH]ccc34)nc21
c1cc(-c2nc(N3CCOCC3)c3nc(CN4CCN5CCOC[C@H]5C4)[nH]c3n2)c2cc[nH]c2c1
CCn1c(CN2CCC(N3CCCC3=O)CC2)nc2c(N3CCOCC3)nc(-c3cccc4[nH]ccc34)nc21
CCn1c(CN2CCC3(CC2)CNC(=O)CO3)nc2c(N3CCOCC3)nc(-c3c(F)ccc4[nH]ccc34)nc21
CC(C)(C(N)=O)N1CCN(Cc2nc3c(N4CCOCC4)nc(-c4cccc5[nH]ccc45)nc3[nH]2)CC1
CCn1c(CN2CCC(N(C)C)CC2)nc2c(N3CCOCC3)nc(-c3cccc4[nH]ccc34)nc21
CN(C)C1CCN(Cc2nc3c(N4CCOCC4)nc(-c4cccc5[nH]ccc45)nc3[nH]2)CC1
CCn1c(CN2CCC(N3CC(F)(F)C3)CC2)nc2c(N3CCOCC3)nc(-c3cccc4[nH]ccc34)nc21
CCn1c(CN2CCC(N3CC(F)C3)CC2)nc2c(N3CCOCC3)nc(-c3c(F)ccc4[nH]ccc34)nc21
CCn1c(CN2CCN(CC(N)=O)[C@@H](C(C)C)C2)nc2c(N3CCOCC3)nc(-c3cccc4[nH]ccc34)nc21
CCn1c(CN2CCC3(CC2)CNC(=O)C3)nc2c(N3CCOCC3)nc(-c3cccc4[nH]ccc34)nc21
CCn1c(CN2CCN(C3CCS(=O)(=O)CC3)CC2)nc2c(N3CCOCC3)nc(-c3c(F)ccc4[nH]ccc34)nc21
CCn1c(CN2CCC(N3CCS(=O)(=O)CC3)CC2)nc2c(N3CCOCC3)nc(-c3cccc4[nH]ccc34)nc21
CCn1c(CN2CCC(N(C)C)CC2)nc2c(N3CCOCC3)nc(-c3c(F)ccc4[nH]ccc34)nc21
